Key:
[1] = system: Human epithelial cells (SW620); format: cell-based; parameters: key to synergy of combination with Poly-IC / synergy of combination with rintatolimod / synergy of combination with TNFα: Yes*: *Direct support by current data (Rintatolimod and poly-IC share binding to TLR3 but not other immunostimulatory properties/recognition receptors/signaling pathways^3)
human coronavirus OC43 = settings: human coronavirus OC43, BS-C-1 kidney cells; cited from earlier work
[2] = cited from earlier work
SARS-CoV = settings: mouse, in vivo; cited from earlier work

IFNγ
synergy of combination with Poly-IC [1]: Yes* | synergy of combination with TNFα [1]: Yes* | synergy of combination with rintatolimod [1]: Yes*

rintatolimod [reference compound]
EC50 (human coronavirus OC43): 0.4 µg/mL | induction of genes involved in SARS-Cov elimination (OAS2, Ifit-1, Mx1, RIG-I, MDA5, TLR3, other ISGs) [1]: synergistic effects | easily achievable concentration in humans [2]: 40 µg/mL | antiviral/survival effect (SARS-CoV): significant antiviral/survival effect

IFNα
synergy of combination with Poly-IC [1]: Yes* | synergy of combination with TNFα [1]: Yes* | synergy of combination with rintatolimod [1]: Yes* | antiviral/survival effect (SARS-CoV): significant antiviral/survival effect

polyinosinic:polycytidylic acid [poly-I:C, reference compound]
induction of genes involved in SARS-Cov elimination (OAS2, Ifit-1, Mx1, RIG-I, MDA5, TLR3, other ISGs) [1]: synergistic effects
